Among the data in PubChem BioAssay AID220 (DTP/NCI, 2004) are T/C values, retold here.

Results filed as inconclusive are left out.

This assay has as its system CD8F1 mice, subcutaneous mammary adenocarcinoma, T/C%. The assay is described as follows: NCI In Vivo Anticancer Drug Screen. Data for tumor model Mammary Adenocarcinoma CD8F1 (subcutaneous) in CD8F1. As to conditions: higher = larger tumour. In outline: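 Ratio of treated to vehicle-control outcome, based on either survival or tumor size, in mice bearing transplantable tumors given the test compound.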

As to `Cn1c(=O)[nH]c2nncnc2c1=O`, the T/C by setting is: (endpoint: median tumor weight change, dose: 15.62 mg/kg/injection, schedule: Q01DX001 (ip), vehicle: other) 89 % of control; (endpoint: median tumor weight change, dose: 31.25 mg/kg/injection, schedule: Q01DX001 (ip), vehicle: other) 88 % of control; (endpoint: median tumor weight change, dose: 62.5 mg/kg/injection, schedule: Q01DX001 (ip), vehicle: other) 57 % of control.
On to `COc1cccc2c1C(=O)c1c(O)c3c(c(O)c1C2=O)C[C@@](O)(C(C)=O)C[C@@H]3OC1CC(N(C)C)C(O)C(C)O1` (stereo partly drawn), for which the T/C (endpoint: mean tumor weight, dose: 1.0 mg/kg/injection, schedule: Q07DX006 (ip), vehicle: water) is 197 % of control; the T/C (endpoint: mean tumor weight, dose: 2.0 mg/kg/injection, schedule: Q07DX006 (ip), vehicle: water) was 73 % of control; the T/C (endpoint: mean tumor weight, dose: 4.0 mg/kg/injection, schedule: Q07DX006 (ip), vehicle: water) was 30 % of control; the T/C (endpoint: mean tumor weight, dose: 8.0 mg/kg/injection, schedule: Q07DX006 (ip), vehicle: water) was 1 % of control; the T/C (endpoint: median tumor weight (est.), dose: 1.0 mg/kg/injection, schedule: Q07DX005 (ip), vehicle: water) is 108 % of control; the T/C (endpoint: median tumor weight (est.), dose: 2.0 mg/kg/injection, schedule: Q07DX005 (ip), vehicle: water) was 63 % of control. For the same compound, the T/C is, setting by setting: (endpoint: median tumor weight (est.), dose: 4.0 mg/kg/injection, schedule: Q07DX005 (ip), vehicle: water) 45 % of control; (endpoint: median tumor weight (est.), dose: 8.0 mg/kg/injection, schedule: Q07DX005 (ip), vehicle: water) 42 % of control.
As to `S=c1[nH]cc2cnccn12`, the T/C reads like this: (endpoint: median tumor weight (est.), dose: 12.5 mg/kg/injection, schedule: Q07DX005 (ip), vehicle: saline with Tween-80) 92 % of control; (endpoint: median tumor weight (est.), dose: 25.0 mg/kg/injection, schedule: Q07DX005 (ip), vehicle: saline with Tween-80) 105 % of control; (endpoint: median tumor weight (est.), dose: 100.0 mg/kg/injection, schedule: Q07DX005 (ip), vehicle: saline with Tween-80) 85 % of control; (endpoint: median tumor weight (est.), dose: 200.0 mg/kg/injection, schedule: Q07DX005 (ip), vehicle: saline with Tween-80) 56 % of control.
For the compound `COC1CC(CC2CCC(C)C(C(C)C(=O)O)O2)OC2(OC(C)(C3CCC(C)(C4OC(C5OC(O)(CO)C(C)CC5C)CC4C)O3)CC2C)C1C` (stereo not drawn), the T/C is 112 % of control (endpoint: median tumor weight (est.), dose: 0.31 mg/kg/injection, schedule: Q07DX005 (ip), vehicle: Klucel (hydroxypropylcellulose) (HPC)); 398 % of control (endpoint: median tumor weight (est.), dose: 0.63 mg/kg/injection, schedule: Q07DX005 (ip), vehicle: Klucel (hydroxypropylcellulose) (HPC)); 390 % of control (endpoint: median tumor weight (est.), dose: 1.25 mg/kg/injection, schedule: Q07DX005 (ip), vehicle: Klucel (hydroxypropylcellulose) (HPC)); 47 % of control (endpoint: median tumor weight (est.), dose: 2.5 mg/kg/injection, schedule: Q07DX005 (ip), vehicle: Klucel (hydroxypropylcellulose) (HPC)); 380 % of control (endpoint: median tumor weight (est.), dose: 5.0 mg/kg/injection, schedule: Q07DX005 (ip), vehicle: Klucel (hydroxypropylcellulose) (HPC)); 323 % of control (endpoint: median tumor weight (est.), dose: 10.0 mg/kg/injection, schedule: Q07DX005 (ip), vehicle: Klucel (hydroxypropylcellulose) (HPC)).
For `CNC=O`, the T/C (endpoint: median tumor weight change, dose: 25.0 mg/kg/injection, schedule: Q01DX001 (ip), vehicle: saline) was 54 % of control; the T/C (endpoint: median tumor weight change, dose: 50.0 mg/kg/injection, schedule: Q01DX001 (ip), vehicle: saline) is 75 % of control; the T/C (endpoint: median tumor weight change, dose: 100.0 mg/kg/injection, schedule: Q01DX001 (ip), vehicle: saline) is 59 % of control; the T/C (endpoint: median tumor weight change, dose: 200.0 mg/kg/injection, schedule: Q01DX001 (ip), vehicle: saline sonified) is 48 % of control; the T/C (endpoint: median tumor weight change, dose: 200.0 mg/kg/injection, schedule: Q01DX001 (ip), vehicle: saline) was 72 % of control; the T/C (endpoint: median tumor weight change, dose: 800.0 mg/kg/injection, schedule: Q01DX001 (ip), vehicle: saline) is 154 % of control. Besides, the T/C is, setting by setting: (endpoint: median tumor weight change, dose: 1600.0 mg/kg/injection, schedule: Q01DX001 (ip), vehicle: saline) 71 % of control; (endpoint: median tumor weight change, dose: 3200.0 mg/kg/injection, schedule: Q01DX001 (ip), vehicle: saline) 108 % of control.
For `COc1cccc2c1C(=O)c1c(O)c3c(c(O)c1C2=O)C[C@@](O)(/C(CO)=N/NC(=O)c1ccc(Cl)c(Cl)c1)C[C@@H]3OC1CC(N)C(O)C(C)O1` (stereo partly drawn), the T/C by setting is: (endpoint: mean tumor weight, dose: 0.75 mg/kg/injection, schedule: Q07DX005 (ip), vehicle: saline) 106 % of control; (endpoint: mean tumor weight, dose: 1.5 mg/kg/injection, schedule: Q07DX005 (ip), vehicle: saline) 161 % of control; (endpoint: mean tumor weight, dose: 1.5 mg/kg/injection, schedule: Q07DX006 (ip), vehicle: saline) 118 % of control; (endpoint: mean tumor weight, dose: 3.0 mg/kg/injection, schedule: Q07DX005 (ip), vehicle: saline) 75 % of control; (endpoint: mean tumor weight, dose: 3.0 mg/kg/injection, schedule: Q07DX006 (ip), vehicle: saline) 71 % of control; (endpoint: mean tumor weight, dose: 4.0 mg/kg/injection, schedule: Q07DX004 (ip), vehicle: saline) 86 % of control. For the same compound, the T/C runs as follows: (endpoint: mean tumor weight, dose: 8.0 mg/kg/injection, schedule: Q07DX004 (ip), vehicle: saline) 96 % of control; (endpoint: mean tumor weight, dose: 12.0 mg/kg/injection, schedule: Q07DX005 (ip), vehicle: saline) 30 % of control; (endpoint: mean tumor weight, dose: 12.0 mg/kg/injection, schedule: Q07DX006 (ip), vehicle: saline) 32 % of control; (endpoint: mean tumor weight, dose: 16.0 mg/kg/injection, schedule: Q07DX004 (ip), vehicle: saline) 17 % of control; (endpoint: median tumor weight (est.), dose: 2.0 mg/kg/injection, schedule: Q07DX005 (ip), vehicle: suspension in saline) 60 % of control; (endpoint: median tumor weight (est.), dose: 4.0 mg/kg/injection, schedule: Q07DX005 (ip), vehicle: suspension in saline) 150 % of control. Besides, the T/C is 41 % of control (endpoint: median tumor weight (est.), dose: 8.0 mg/kg/injection, schedule: Q07DX005 (ip), vehicle: suspension in saline) and 25 % of control (endpoint: median tumor weight (est.), dose: 16.0 mg/kg/injection, schedule: Q07DX005 (ip), vehicle: suspension in saline).
